Source: patent US20240360177A1, “PEPTIDES WITH ANTIMICROBIAL ACTIVITIES” (priority 2021, published 2024)
Values after ≈ are worked out from the molar mass of the structure shown. Where two headings read alike, the source gives them in different places. Non-standard residues stand in square brackets, D forms with d. Residues, ends and D or L forms follow the SMILES beside them. hLeu = CC(C)CC[C@H](N)C(=O)O; NBuGly = CCCCNCC(=O)O; AEA = NCCOCC(=O)O; Ava = NCCCCC(=O)O

Molecule	MIC C. parapsilosis (C. parapsilosis; 24 h) [µg/mL]	MIC C. albicans (C. albicans; 24 h) [µg/mL]	MIC C. dubliniensis (C. dubliniensis; 24 h) [µg/mL]	MIC C. glabrata (C. glabrata; 24 h) [µg/mL]	MIC C. auris (C. auris; 24 h) [µg/mL]	MIC C. tropicalis (C. tropicalis; 24 h) [µg/mL]	MIC C. krusei (C. krusei; 24 h) [µg/mL]	MIC C. parapsilosis (C. parapsilosis; ATCC 22019, 24 hrs) [µg/mL]	MIC C. albicans (C. albicans; ATCC 90028 or 90029, 24 hrs) [µg/mL]	MIC C. dubliniensis (C. dubliniensis; ATCC MYA-578, 24 hrs) [µg/mL]	MIC C. glabrata (C. glabrata; ATCC 90030, 24 hrs) [µg/mL]	MIC C. auris (C. auris; CDC 386, 24 hrs) [µg/mL]	MIC C. tropicalis (C. tropicalis; ATCC 90874, 24 hrs) [µg/mL]	MIC C. krusei (C. krusei; MMX 7135, 24 hrs) [µg/mL]
N=C(N)NCCC[C@@H](N)C(=O)N[C@@H](CCCNC(=N)N)C(=O)N[C@H](CCCNC(=N)N)C(=O)NCCCCC(=O)N[C@H](CCCNC(=N)N)C(=O)N[C@@H](CCCNC(=N)N)C(=O)N[C@H](CCCNC(=N)N)C(=O)NCCCCC(=O)N[C@H](CCCNC(=N)N)C(=O)N[C@@H](CCCNC(=N)N)C(=O)N[C@H](CCCNC(=N)N)C(=O)N[C@@H](CCCNC(=N)N)C(=O)NCCCCC(=O)N[C@H](CCCNC(=N)N)C(=O)N[C@@H](CCCNC(=N)N)C(=O)N[C@H](CCCNC(=N)N)C(=O)N[C@@H](CCCNC(=N)N)C(=O)O [SEQ ID NO: 19, rRr-(Ava)-rRr-(Ava)-rRrR-(Ava)-rRrR] (H-[dR]R[dR][Ava][dR]R[dR][Ava][dR]R[dR]R[Ava][dR]R[dR]R-OH)	0.25 (≈ 0.0999 µM)	0.5 (≈ 0.2 µM)	0.5 (≈ 0.2 µM)	0.5 (≈ 0.2 µM)	2 (≈ 0.799 µM)	0.5 (≈ 0.2 µM)	1 (≈ 0.4 µM)							
N=C(N)NCCC[C@@H](N)C(=O)N[C@@H](CCCNC(=N)N)C(=O)N[C@H](CCCNC(=N)N)C(=O)NCCCCC(=O)N[C@H](CCCNC(=N)N)C(=O)N[C@@H](CCCNC(=N)N)C(=O)N[C@H](CCCNC(=N)N)C(=O)NCCCCC(=O)N[C@H](CCCNC(=N)N)C(=O)N[C@@H](CCCNC(=N)N)C(=O)N[C@H](CCCNC(=N)N)C(=O)N[C@@H](CCCNC(=N)N)C(=O)NCCCCC(=O)N[C@H](CCCNC(=N)N)C(=O)N[C@@H](CCCNC(=N)N)C(=O)N[C@H](CCCNC(=N)N)C(=O)N[C@@H](CCCNC(=N)N)C(=O)N[C@@H](CCC(=O)O)C(=O)O [SEQ ID NO: 20, rRr-(Ava)-rRr-(Ava)-rRrR-(Ava)-rRrR-Glu] (H-[dR]R[dR][Ava][dR]R[dR][Ava][dR]R[dR]R[Ava][dR]R[dR]RE-OH)								0.25 (≈ 0.095 µM)	0.5 (≈ 0.19 µM)	0.5 (≈ 0.19 µM)	1 (≈ 0.38 µM)	16 (≈ 6.08 µM)	0.5 (≈ 0.19 µM)	2 (≈ 0.76 µM)
N=C(N)NCCC[C@@H](N)C(=O)N[C@@H](CCCNC(=N)N)C(=O)N[C@H](CCCNC(=N)N)C(=O)N[C@@H](CCCNC(=N)N)C(=O)NCCCCC(=O)N[C@H](CCCNC(=N)N)C(=O)N[C@@H](CCCNC(=N)N)C(=O)N[C@H](CCCNC(=N)N)C(=O)N[C@@H](CCCNC(=N)N)C(=O)NCCCCC(=O)N[C@H](CCCNC(=N)N)C(=O)N[C@@H](CCCNC(=N)N)C(=O)N[C@H](CCCNC(=N)N)C(=O)NCCCCC(=O)N[C@H](CCCNC(=N)N)C(=O)N[C@@H](CCCNC(=N)N)C(=O)N[C@H](CCCNC(=N)N)C(N)=O [SEQ ID NO: 21, rRrR-(Ava)-rRrR-(Ava)-rRr-(Ava)-rRr-NH2] (H-[dR]R[dR]R[Ava][dR]R[dR]R[Ava][dR]R[dR][Ava][dR]R[dR]-NH2)	0.25 (≈ 0.1 µM)	0.5 (≈ 0.2 µM)	0.5 (≈ 0.2 µM)	0.5 (≈ 0.2 µM)	0.5 (≈ 0.2 µM)	0.5 (≈ 0.2 µM)	0.5 (≈ 0.2 µM)							
CCCCN(CC(=O)N[C@H](CCCNC(=N)N)C(=O)N[C@@H](CCCNC(=N)N)C(=O)N[C@H](CCCNC(=N)N)C(=O)N[C@@H](CCCNC(=N)N)C(N)=O)C(=O)[C@H](CCCNC(=N)N)NC(=O)[C@@H](CCCNC(=N)N)NC(=O)[C@H](CCCNC(=N)N)NC(=O)[C@@H](CCCNC(=N)N)NC(=O)CN(CCCC)C(=O)[C@@H](CCCNC(=N)N)NC(=O)[C@H](CCCNC(=N)N)NC(=O)[C@@H](CCCNC(=N)N)NC(=O)CN(CCCC)C(=O)[C@@H](CCCNC(=N)N)NC(=O)[C@H](CCCNC(=N)N)NC(=O)[C@H](N)CCCNC(=N)N [SEQ ID NO: 35, rRr-(ButylGly)-rRr-(ButylGly)-rRrR-(ButylGly)-rRrR-NH2] (H-[dR]R[dR][NBuGly][dR]R[dR][NBuGly][dR]R[dR]R[NBuGly][dR]R[dR]R-NH2)	0.25 (≈ 0.0983 µM)	0.5 (≈ 0.197 µM)	0.5 (≈ 0.197 µM)	0.5 (≈ 0.197 µM)	0.5 (≈ 0.197 µM)	0.5 (≈ 0.197 µM)	0.5 (≈ 0.197 µM)							
N=C(N)NCCC[C@@H](N)C(=O)N[C@@H](CCCNC(=N)N)C(=O)N[C@H](CCCNC(=N)N)C(=O)NCCCCC(=O)N[C@H](CCCNC(=N)N)C(=O)N[C@@H](CCCNC(=N)N)C(=O)N[C@H](CCCNC(=N)N)C(=O)NCCOCC(=O)N[C@H](CCCNC(=N)N)C(=O)N[C@@H](CCCNC(=N)N)C(=O)N[C@H](CCCNC(=N)N)C(=O)N[C@@H](CCCNC(=N)N)C(=O)NCCCCC(=O)N[C@H](CCCNC(=N)N)C(=O)N[C@@H](CCCNC(=N)N)C(=O)N[C@H](CCCNC(=N)N)C(=O)N[C@@H](CCCNC(=N)N)C(N)=O [SEQ ID NO: 48, rRr-(Ava)-rRr-(Aea)-rRrR-(Ava)-rRrR-NH2] (H-[dR]R[dR][Ava][dR]R[dR][AEA][dR]R[dR]R[Ava][dR]R[dR]R-NH2)	0.5 (≈ 0.2 µM)	0.5 (≈ 0.2 µM)	0.5 (≈ 0.2 µM)	1 (≈ 0.4 µM)		0.5 (≈ 0.2 µM)								
N=C(N)NCCC[C@@H](N)C(=O)N[C@@H](CCCNC(=N)N)C(=O)N[C@H](CCCNC(=N)N)C(=O)NCCCCC(=O)N[C@H](CCCNC(=N)N)C(=O)N[C@@H](CCCNC(=N)N)C(=O)N[C@H](CCCNC(=N)N)C(=O)NCCCCC(=O)N[C@H](CCCNC(=N)N)C(=O)N[C@@H](CCCNC(=N)N)C(=O)N[C@H](CCCNC(=N)N)C(=O)N[C@@H](CCCNC(=N)N)C(=O)NCCOCC(=O)N[C@H](CCCNC(=N)N)C(=O)N[C@@H](CCCNC(=N)N)C(=O)N[C@H](CCCNC(=N)N)C(=O)N[C@@H](CCCNC(=N)N)C(N)=O [SEQ ID NO: 49, rRr-(Ava)-rRr-(Ava)-rRrR-(Aea)-rRrR-NH2] (H-[dR]R[dR][Ava][dR]R[dR][Ava][dR]R[dR]R[AEA][dR]R[dR]R-NH2)	0.5 (≈ 0.2 µM)	1 (≈ 0.4 µM)	0.5 (≈ 0.2 µM)	1 (≈ 0.4 µM)		0.5 (≈ 0.2 µM)								
N=C(N)NCCC[C@@H](N)C(=O)N[C@@H](CCCNC(=N)N)C(=O)N[C@H](CCCNC(=N)N)C(=O)NCCCCC(=O)N[C@H](CCCNC(=N)N)C(=O)N[C@@H](CCCNC(=N)N)C(=O)N[C@H](CCCNC(=N)N)C(=O)NCCOCC(=O)N[C@H](CCCNC(=N)N)C(=O)N[C@@H](CCCNC(=N)N)C(=O)N[C@H](CCCNC(=N)N)C(=O)N[C@@H](CCCNC(=N)N)C(=O)NCCOCC(=O)N[C@H](CCCNC(=N)N)C(=O)N[C@@H](CCCNC(=N)N)C(=O)N[C@H](CCCNC(=N)N)C(=O)N[C@@H](CCCNC(=N)N)C(N)=O [SEQ ID NO: 51, rRr-(Ava)-rRr-(Aea)-rRrR-(Aea)-rRrR-NH2] (H-[dR]R[dR][Ava][dR]R[dR][AEA][dR]R[dR]R[AEA][dR]R[dR]R-NH2)	0.25 (≈ 0.0998 µM)	0.5 (≈ 0.2 µM)	0.25 (≈ 0.0998 µM)	1 (≈ 0.399 µM)		0.5 (≈ 0.2 µM)								
CC(C)CC[C@H](NC(=O)[C@@H](CCCNC(=N)N)NC(=O)[C@H](CCCNC(=N)N)NC(=O)[C@@H](CCCNC(=N)N)NC(=O)[C@@H]1CCCN1C(=O)[C@H](CCCNC(=N)N)NC(=O)[C@@H](CCCNC(=N)N)NC(=O)[C@H](CCCNC(=N)N)NC(=O)[C@@H](CCCNC(=N)N)NC(=O)[C@@H]1CCCN1C(=O)[C@@H](CCCNC(=N)N)NC(=O)[C@H](CCCNC(=N)N)NC(=O)[C@@H](CCCNC(=N)N)NC(=O)[C@@H]1CCCN1C(=O)[C@@H](CCCNC(=N)N)NC(=O)[C@H](CCCNC(=N)N)NC(=O)[C@H](N)CCCNC(=N)N)C(N)=O [SEQ ID NO: 93, rRr-P-rRr-P-rRrR-P-rRr(hLeu)-NH2] (H-[dR]R[dR]P[dR]R[dR]P[dR]R[dR]RP[dR]R[dR][hLeu]-NH2)	1 (≈ 0.406 µM)	0.5 (≈ 0.203 µM)	0.5 (≈ 0.203 µM)	1 (≈ 0.406 µM)		0.5 (≈ 0.203 µM)								
CC(C)CC[C@H](NC(=O)[C@@H](CCCNC(=N)N)NC(=O)[C@H](CCCNC(=N)N)NC(=O)[C@@H](CCCNC(=N)N)NC(=O)[C@@H]1CCCN1C(=O)[C@H](CCCNC(=N)N)NC(=O)[C@@H](CCCNC(=N)N)NC(=O)[C@H](CCCNC(=N)N)NC(=O)[C@@H](CCCNC(=N)N)NC(=O)[C@@H]1CCCN1C(=O)[C@@H](CCCNC(=N)N)NC(=O)[C@H](CCCNC(=N)N)NC(=O)[C@@H](CCCNC(=N)N)NC(=O)[C@@H]1CCCN1C(=O)[C@@H](CCCNC(=N)N)NC(=O)[C@H](CCCNC(=N)N)NC(=O)[C@@H](N)CCC(C)C)C(N)=O [SEQ ID NO: 95, (hLeu)Rr-P-rRr-P-rRrR-P-rRr(hLeu)-NH2] (H-[hLeu]R[dR]P[dR]R[dR]P[dR]R[dR]RP[dR]R[dR][hLeu]-NH2)	1 (≈ 0.41 µM)	1 (≈ 0.41 µM)	0.5 (≈ 0.205 µM)	0.5 (≈ 0.205 µM)		1 (≈ 0.41 µM)								
rR-(Apg)-rR-(Apg)-rRr-(Apg)-rRr-NH2 [SEQ ID NO: 39]	0.12	0.25	0.12	8		0.25								
